# Where “and” joins values, the source holds several entries; their conditions need not be identical. Identical values can stand only once. Counter-ions that a name gives are not always drawn. Like-named read-outs stand apart in the source and are kept apart here.
# Assays:
# [1] = dogs; cited from earlier work
# [2] = depending on food intake; cited from earlier work
# [3] = system: HepaRG cells; assay: HepaRG cellular uptake; conditions: for mean prodrug concentration in HepaRG cells: 20 µM; for HepaRG Cmax: 20 μM, HSA formulation 5:1, recorded after 3 h incubation
# Description: (§1) Naturally, due the metabolic complexity of HepaRG cells, we specifically analyzed prodrug cellular uptake and stability, as represented by Cmax and intrinsic clearance (Clint,u) accordingly (Figure 7 and Table 9).
# (§2) The HepaRG cell line (HPRGC10, Thermo Fisher Scientific) was used to evaluate the cellular permeability and metabolic stability for select final compounds in vitro. The cells were initially thawed with working media composed of HepaRG Thaw, Plate, & General Purpose Medium Supplement (HPRG670), Williams Medium E (100 mL), and GlutaMax (1 mL), all purchased from Thermo Fisher Scientific. […] After the thawing medium was aspirated from each well, the cells were cultured for an additional 6 days with working media consisting of HepaRG Maintenance/Metabolism Medium Supplement (HPRG720), Williams Medium E (500 mL), and GlutaMax (1 mL), all purchased from Thermo Fisher Scientific. Upon completing the 7-day culture period, HepaRG cells were plated in enough wells to allow for duplicate analysis of prodrugs in two independent cellular uptake or metabolic stability experiments. All studied compounds were formulated with human serum albumin (HSA, 5:1 compound to HSA molar ratio) and subsequently diluted to a 20 μM final concentration with assay medium composed of serum-free INVITROGRO HI Medium and TORPEDO Antibiotic Mix purchased from BioIVT. For cellular uptake determinations, the maintenance/metabolism medium was first aspirated from each well, and then the plated cells were spiked with 1.0 mL of test compound stock solution. Subsequently, the plate was incubated at 37 °C under 5% CO2 environment over the desired time course (seven data points/compound). Blank wells not treated with prodrug were included in assay runs as controls and initial time points (0 min). At each time point, the test compound solution was removed from the appropriate wells, and the plated cells were washed with 1.0 mL of DPBS twice. The HepaRG cells were then extracted with 500 μL of cold ISTD solution (1 μM 7-ethoxy-d5-coumarin in 70/30 MeOH/H2O), and the quenched aliquots were centrifuged at 15,000 g for 10 min at 4 °C. […] After obtaining prodrug Cmax and Tmax values from the cellular uptake assay, HepaRG metabolic stability was then assessed. Following the initial 7-day culture procedure, the maintenance/metabolism medium was aspirated from each well, and the plated cells were spiked with 1.0 mL of test compound stock solution. […] The test compound solution was then removed from each well and replaced with untreated dilution medium (i.e., serum-free INVITROGRO HI Medium and TORPEDO Antibiotic Mix), initializing the stability determination. The HepaRG plate was once more incubated at 37 °C under 5% CO2 atmosphere over the desired time course (nine data points/compound), and sample preparation and analysis were handled in identical fashion to cellular uptake experiments.
# [4] = Human liver microsome stability; conditions: HLM 1 mg/mL, 3 μM compound, NADPH, 37 °C, 120 min course
# Experimental: Human liver microsomes (HLMs, 20 mg/mL) and CD-1 mouse liver microsomes (MLMs, 20 mg/mL) were purchased from Xenotech. NADPH was purchased from Sigma-Aldrich and prepared in 10 mM stock solutions of distilled H2O (Invitrogen UltraPure). […] Test compounds and positive controls were initially dissolved in MeOH to make 10 mM stock solutions. Sample solutions were then further diluted in 70/30 MeOH/H2O to 500 μM. Next, the reactions were prepared by mixing human or mouse liver microsomes (55 μL) with potassium phosphate buffer (100 mM, 928 μL) in 1.5 mL Eppendorf tubes. The test compounds (6.6 μL of 500 μM solution) were subsequently added to the suspensions, and the reaction mixtures were incubated at 37 °C for 5 min. Afterward, the liver microsome reactions were initiated with 110 μL of 10 mM NADPH and further incubated at 37 °C for the designated time course of the study. […] Each test compound was run in tandem with positive and negative control experiments for quality assurance. Positive control reactions were conducted at a final volume of 550 μL for a single run of each time point.
# For both LM and plasma stability assays, each data point was analyzed in duplicate using in-between blank washes to avoid carry over and to equilibrate the column for the subsequent runs. Averages of these duplicate for individual compounds at each time point were then normalized to the data at 0 min, representing 100% test compound remaining or 0% metabolism. Half-lives (t1/2) were calculated by plotting ln of % test compound remaining versus time and performing linear regression to determine slope.
# Metabolic Stability Assays
# Liver Microsome Stability
# Liver Microsome Stability Assay Setup Example
# Quenching Mixture: 100 µL MeOH with ISTD (2 µM d5-7-ethoxycoumarin).
# Final Volume After Quenching: 200 µL (100 µL from reaction mixture + 100 µL quencher
# solution; ISTD final concentration of 1.0 µM).
# [5] = in vitro; conditions: human, other cell line
# [6] = Cellular cytotoxicity (cell viability, CellTiter 96 or resazurin); conditions: human, CC50, HEK293T cells, compounds formulated with HSA (5:1)
# Experimental: Second, HIV IC50 and cellular CC50 were determined with a pseudoviral, whole (HEK293T) cell, nonreplicative HIV assay, using the HIV-1 subtype C strain MJ4 (refer to Experimental Methods). To account for the unique amphiphilic properties of TXL and the novel HTP-based prodrugs, all compounds were formulated in a human serum albumin (HSA) solution (5:1 drug:protein).
# Assessment of cytotoxicity and antiviral activity of all final compounds in vitro was conducted according to previously reported procedures.[39] In summary, human embryonic kidney (HEK293T) cells maintained in high glucose (25 mM), Dulbecco’s modified Eagle’s medium (DMEM) supplemented with fetal bovine serum (10%), sodium pyruvate (1 mM), L-glutamine (2 mM), HEPES (25 mM), and gentamicin (50 μg/mL) were used for determinations. The cells were maintained in an incubator at 37 °C under 5% CO2 in a humidified atmosphere. For both cytotoxicity and antiviral screening, all compounds were evaluated in duplicate in at least two independent experiments. All final compounds were formulated with human serum albumin (HSA, 5:1 compound to HSA molar ratio) and subsequently diluted with complete DMEM to 200 μM. Fifty microliters of test compound serial dilutions (3-fold) were prepared in 96-well culture plates, after which 50 μL of HEK293T cells (2 × 10^4 cells/well) was added. […] Cytotoxicity was then assessed by quantifying cell viability using the CellTiter 96 Aqueous One Solution Cell Proliferation Assay (Promega, Madison, WI) or resazurin sodium salt (cat# R7017, Merck, Darmstadt, Germany).[61] […] Antiviral activity was then assessed using a single-cycle, nonreplicating, envelope deleted HIV pseudoviral in vitro assay.[62],[63] The assay relies on the introduction of the firefly luciferase gene into HEK293T cells through infection with HIV-like viral particles, containing Reverse Transcriptase (RT) and Integrase (IN) from the HIV-1 subtype C strain MJ4.[64] The expression of the luciferase in the cells is directly proportional to the level of infection by the HIV-like viral particles and can be used to assess the inhibition of HIV-1 RT and IN. To evaluate anti-HIV activity, 3-fold serial dilutions of all final compounds were prepared in 50 μL over the noncytotoxic concentration range (as determined from the cytotoxicity screens described above) in 96-well culture plates. HEK293T cells (2 × 10^4 cells/well) and HIV-like viral particles, standardized to produce a luminescence signal of 1 × 10^6 relative light units (RLUs) in the growth medium only control, were combined, and 50 μL was added to the wells containing serially diluted test compounds. […] The expression of luciferase was subsequently quantified by adding 100 μL of the Bright-Glo Luciferase Assay substrate (Promega, Madison, WI) to each well of the 96-well plates. After incubation at rt for 3 min, luminescence was quantified on the GloMax Explorer Multimode Microplate Reader (Promega, Madison, WI).
# [7] = system: HepaRG cells; assay: HepaRG cellular metabolic stability; conditions: for HepaRG t1/2: after 3 h loading at 20 μM, 37 °C; for HepaRG Clint,u: calculated from cellular t1/2
# [8] = in vitro; conditions: human, HepaRG Cmax, 20 μM, HSA formulation 5:1, recorded after 3 h incubation
# Description: as §1, §2
# [9] = plasma, p.o. 10 mg/kg; cited from earlier work
# [10] = liver, p.o. 10 mg/kg; cited from earlier work
# [11] = HepaRG cellular uptake; conditions: human, HepaRG Cmax, 20 μM, HSA formulation 5:1, recorded after 3 h incubation
# Description: as §1, §2
# [12] = system: HIV-1 subtype C strain MJ4; set-up: method as in PMID 34459598; conditions: previously reported lead; cited from earlier work
# [13] = system: HEK293T cells; set-up: method as in PMID 34459598; conditions: previously reported lead; cited from earlier work
# [14] = HepaRG cellular metabolic stability; conditions: human, other cell line
# [15] = HepaRG Clint,u, calculated from cellular t1/2
# [16] = HepaRG t1/2, after 3 h loading at 20 μM, 37 °C
Compound,mean prodrug concentration in HepaRG cells ([3]; 0.5 h),mean prodrug concentration in HepaRG cells ([3]; 1 h),mean prodrug concentration in HepaRG cells ([3]; 2 h),mean prodrug concentration in HepaRG cells ([3]; 3 h),mean prodrug concentration in HepaRG cells ([3]; 5 h),mean prodrug concentration in HepaRG cells ([3]; 7 h),HepaRG Cmax [3],HepaRG t1/2 [7],"HepaRG Clint,u [7]",Prodrug AUC0-24h [9],Prodrug Cmax [9],Prodrug Tmax [9],Prodrug t1/2 [9],k [9],Prodrug AUC0-24h [10],Prodrug Cmax [10],further results
"CC(C)OC(=O)[C@H](C)N[P@](=O)(CO[C@H](C)Cn1cnc2c(N)ncnc21)Oc1ccccc1 [TAF, tenofovir alafenamide]",–,–,–,–,–,–,–,–,–,–,–,–,–,–,–,–,share of oral dose undergoing hepatic processing [1]: 65%
"CC(C)OC(=O)OCOP(=O)(CO[C@H](C)Cn1cnc2c(N)ncnc21)OCOC(=O)OC(C)C [TDF, tenofovir disoproxil fumarate]",–,–,–,–,–,–,–,–,–,–,–,–,–,–,–,–,oral bioavailability [2]: 25–40%
"CCCCCCCCCCCCCCCCOCCCOP(=O)(O)CO[C@H](C)Cn1cnc2c(N)ncnc21 [TXL, tenofovir exalidex]",258.83 ng/mL,311.46 ng/mL,378.66 ng/mL,397.09 ng/mL,468.27 ng/mL,536.47 ng/mL,397.1 ± 1.4 ng/mL,44.3 ± 0.5 min,28.5 μL/min/million cells,301 ng·h/mL,125 ng/mL,60 min,175 min,0.237,4970 ng·h/mL,2730 ng/mL,"HLM t1/2 [4]: 42 min and 41.6 ± 9.0 ^d min; hepatocyte CLint [5, 15]: ~29 µL/min/1e6 cells; half-life [5, 16]: 43 to 44 min; CC50 at 48 h [6]: 97.6 ± 2.7 µM; Cmax [8]: 397 ng/mL; Prodrug Tmax [10]: 60 min"
C[C@H](Cn1cnc2c(N)ncnc21)OCP(=O)(O)OCCCOCCCCCCCCCCCCCCCC(F)(F)F.N [compound 1],141.43 ng/mL,180.34 ng/mL,319.83 ng/mL,337.43 ng/mL,321.56 ng/mL,417.13 ng/mL,337.4 ± 1.0 ng/mL,42.9 ± 0.5 min,29.4 μL/min/million cells,1280 ng·h/mL,125 ng/mL,120 min,520 min,0.080,"109,000 h·ng/mL",8710 ng/mL,"Cmax at 3 h, 20 μM [11]: 337 ng/mL; IC50 [12]: 0.049 ± 0.01 µM; CC50 [13]: > 100 µM; hepatocyte CLint at 20 μM [14, 15]: ~29 µL/min/1e6 cells; half-life at 20 μM [14, 16]: 43 to 44 min"

# Reference: PMC11513920, “Building Metabolically Stable and Potent Anti-HIV Thioether-Lipid Analogues of Tenofovir Exalidex: A thorough Pharmacological Analysis” (Journal of Medicinal Chemistry, 2024)
